Legend:
Assay type in all cases: in vivo
[1] = system: redroot pigweed (Amaranthus retroflexus, AMARE); assay: Pre-emerge test, greenhouse herbicide activity screening; settings: pre-emerge, rated 14 days after application, 0 = no damage, 100 = complete death
Method in brief: (§1)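 Compounds in acetone were track-sprayed at 15-1000 g ai/ha (187 l/ha) on sandy loam pots: pre-emerge one day after seeding, post-emerge at 2-3 leaf stage with 0.25% v/v non-ionic surfactant. Phytotoxicity was rated 14 days later on a 0 (no damage) to 100 (complete death) scale.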

[2] = system: barnyardgrass (Echinochloa crus-galli, ECHCG); assay: as above; settings: pre-emerge, rated 14 days after application, 0 = no damage, 100 = complete death
Method in brief: as §1

[3] = system: green foxtail (Setaria viridis, SETVI); assay: as above; settings: pre-emerge, rated 14 days after application, 0 = no damage, 100 = complete death
Method in brief: as §1

[4] = system: ivyleaf morningglory (Ipomoea hederacea, IPOHE); assay: as above; settings: pre-emerge, rated 14 days after application, 0 = no damage, 100 = complete death
Method in brief: as §1

[5] = system: johnsongrass (Sorghum halepense, SORHA); assay: as above; settings: pre-emerge, rated 14 days after application, 0 = no damage, 100 = complete death
Method in brief: as §1

[6] = system: lambsquarters (Chenopodium album, CHEAL); assay: as above; settings: pre-emerge, rated 14 days after application, 0 = no damage, 100 = complete death
Method in brief: as §1

[7] = system: large crabgrass (Digitaria sanguinalis, DIGSA); assay: as above; settings: pre-emerge, rated 14 days after application, 0 = no damage, 100 = complete death
Method in brief: as §1

[8] = system: sicklepod (Cassia obtusifolia, CASOB); assay: as above; settings: pre-emerge, rated 14 days after application, 0 = no damage, 100 = complete death
Method in brief: as §1

[9] = system: velvetleaf (Abutilon theophrasti, ABUTH); assay: as above; settings: pre-emerge, rated 14 days after application, 0 = no damage, 100 = complete death
Method in brief: as §1

[10] = system: field corn (Zea mays L., var. Dekalb 535, CORN); assay: Pre-emerge test, crop safety; settings: pre-emerge, rated 14 days after application, 0 = no damage, 100 = complete death
Method in brief: (§2)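 Herbicidal damage is scored 0 (none) to 100 (complete plant death) two weeks after a simulated field spray. Rates span 15–1000 g ai/ha, delivered in acetone at 187 l/ha. For post-emergence treatments, plants have 2–3 leaves and the spray carries 0.25% v/v non-ionic surfactant.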

[11] = system: upland rice (Oryza sp., var. Tebonnet, RICE); assay: Pre-emerge test, crop safety; settings: pre-emerge, rated 14 days after application, 0 = no damage, 100 = complete death
Method in brief: as §2

[12] = system: barnyardgrass (Echinochloa crus-galli, ECHCG); assay: Post-emerge test, greenhouse herbicide activity screening; settings: phytotoxicity rating 0-100 (0 no damage, 100 complete death), 14 days after application
Method in brief: as §2

[13] = system: green foxtail (Setaria viridis, SETVI); assay: as above; settings: phytotoxicity rating 0-100 (0 no damage, 100 complete death), 14 days after application
Method in brief: as §2

[14] = system: ivyleaf morningglory (Ipomoea hederacea, IPOHE); assay: as above; settings: phytotoxicity rating 0-100 (0 no damage, 100 complete death), 14 days after application
Method in brief: as §2

[15] = system: johnsongrass (Sorghum halepense, SORHA); assay: as above; settings: phytotoxicity rating 0-100 (0 no damage, 100 complete death), 14 days after application
Method in brief: as §2

[16] = system: lambsquarters (Chenopodium album, CHEAL); assay: as above; settings: phytotoxicity rating 0-100 (0 no damage, 100 complete death), 14 days after application
Method in brief: as §2

[17] = system: large crabgrass (Digitaria sanguinalis, DIGSA); assay: as above; settings: phytotoxicity rating 0-100 (0 no damage, 100 complete death), 14 days after application
Method in brief: as §2

[18] = system: redroot pigweed (Amaranthus retroflexus, AMARE); assay: as above; settings: phytotoxicity rating 0-100 (0 no damage, 100 complete death), 14 days after application
Method in brief: as §2

[19] = system: sicklepod (Cassia obtusifolia, CASOB); assay: as above; settings: phytotoxicity rating 0-100 (0 no damage, 100 complete death), 14 days after application
Method in brief: as §2

[20] = system: velvetleaf (Abutilon theophrasti, ABUTH); assay: as above; settings: phytotoxicity rating 0-100 (0 no damage, 100 complete death), 14 days after application
Method in brief: as §2

[21] = system: field corn (Zea mays L., var. Dekalb 535, CORN); assay: Post-emerge test, crop safety; settings: phytotoxicity rating 0-100 (0 no damage, 100 complete death), 14 days after application
Method in brief: as §1

[22] = system: upland rice (Oryza sp., var. Tebonnet, RICE); assay: Post-emerge test, crop safety; settings: phytotoxicity rating 0-100 (0 no damage, 100 complete death), 14 days after application
Method in brief: as §1

COC(=O)C=CCOc1c(Cl)cc(F)c(-n2c(=O)cc(C(F)(F)F)n(C)c2=O)c1N [Compound 1-20]
Pre-emerge Herbicidal Activity AMARE (phytotoxicity rating, scale 0-100) ([1]; 63 g ai/ha): 100
Pre-emerge Herbicidal Activity AMARE (phytotoxicity rating, scale 0-100) ([1]; 250 g ai/ha): 100
Pre-emerge Herbicidal Activity ECHCG (phytotoxicity rating, scale 0-100) ([2]; 63 g ai/ha): 50
Pre-emerge Herbicidal Activity ECHCG (phytotoxicity rating, scale 0-100) ([2]; 250 g ai/ha): 100
Pre-emerge Herbicidal Activity SETVI (phytotoxicity rating, scale 0-100) ([3]; 63 g ai/ha): 80
Pre-emerge Herbicidal Activity SETVI (phytotoxicity rating, scale 0-100) ([3]; 250 g ai/ha): 100
Pre-emerge Herbicidal Activity IPOHE (phytotoxicity rating, scale 0-100) ([4]; 63 g ai/ha): 40
Pre-emerge Herbicidal Activity IPOHE (phytotoxicity rating, scale 0-100) ([4]; 250 g ai/ha): 100
Pre-emerge Herbicidal Activity SORHA (phytotoxicity rating, scale 0-100) ([5]; 63 g ai/ha): 30
Pre-emerge Herbicidal Activity SORHA (phytotoxicity rating, scale 0-100) ([5]; 250 g ai/ha): 70
Pre-emerge Herbicidal Activity CHEAL (phytotoxicity rating, scale 0-100) ([6]; 63 g ai/ha): 100
Pre-emerge Herbicidal Activity CHEAL (phytotoxicity rating, scale 0-100) ([6]; 250 g ai/ha): 100
Pre-emerge Herbicidal Activity DIGSA (phytotoxicity rating, scale 0-100) ([7]; 63 g ai/ha): 50
Pre-emerge Herbicidal Activity DIGSA (phytotoxicity rating, scale 0-100) ([7]; 250 g ai/ha): 90
Pre-emerge Herbicidal Activity CASOB (phytotoxicity rating, scale 0-100) ([8]; 63 g ai/ha): 100
Pre-emerge Herbicidal Activity CASOB (phytotoxicity rating, scale 0-100) ([8]; 250 g ai/ha): 100
Pre-emerge Herbicidal Activity ABUTH (phytotoxicity rating, scale 0-100) ([9]; 63 g ai/ha): 100
Pre-emerge Herbicidal Activity ABUTH (phytotoxicity rating, scale 0-100) ([9]; 250 g ai/ha): 100
Pre-emerge crop damage CORN (phytotoxicity rating, scale 0-100) ([10]; 63 g ai/ha): 15
Pre-emerge crop damage CORN (phytotoxicity rating, scale 0-100) ([10]; 250 g ai/ha): 65
Pre-emerge crop damage RICE (phytotoxicity rating, scale 0-100) ([11]; 63 g ai/ha): 60
Pre-emerge crop damage RICE (phytotoxicity rating, scale 0-100) ([11]; 250 g ai/ha): 70
Post-emerge Herbicidal Activity ECHCG ([12]; 63 g ai/ha): 30
Post-emerge Herbicidal Activity ECHCG ([12]; 250 g ai/ha): 80
Post-emerge Herbicidal Activity SETVI ([13]; 63 g ai/ha): 0
Post-emerge Herbicidal Activity SETVI ([13]; 250 g ai/ha): 60
Post-emerge Herbicidal Activity IPOHE ([14]; 63 g ai/ha): 100
Post-emerge Herbicidal Activity IPOHE ([14]; 250 g ai/ha): 100
Post-emerge Herbicidal Activity SORHA ([15]; 63 g ai/ha): 10
Post-emerge Herbicidal Activity SORHA ([15]; 250 g ai/ha): 70
Post-emerge Herbicidal Activity CHEAL ([16]; 63 g ai/ha): 90
Post-emerge Herbicidal Activity CHEAL ([16]; 250 g ai/ha): 100
Post-emerge Herbicidal Activity DIGSA ([17]; 63 g ai/ha): 10
Post-emerge Herbicidal Activity DIGSA ([17]; 250 g ai/ha): 20
Post-emerge Herbicidal Activity AMARE ([18]; 63 g ai/ha): 90
Post-emerge Herbicidal Activity AMARE ([18]; 250 g ai/ha): 100
Post-emerge Herbicidal Activity CASOB ([19]; 63 g ai/ha): 0
Post-emerge Herbicidal Activity CASOB ([19]; 250 g ai/ha): 50
Post-emerge Herbicidal Activity ABUTH ([20]; 63 g ai/ha): 100
Post-emerge Herbicidal Activity ABUTH ([20]; 250 g ai/ha): 100
Post-emerge Herbicidal Activity CORN (crop damage) ([21]; 63 g ai/ha): 10
Post-emerge Herbicidal Activity CORN (crop damage) ([21]; 250 g ai/ha): 40
Post-emerge Herbicidal Activity RICE (crop damage) ([22]; 63 g ai/ha): 20
Post-emerge Herbicidal Activity RICE (crop damage) ([22]; 250 g ai/ha): 50

Cn1c(C(F)(F)F)cc(=O)n(-c2c(F)cc(Cl)c(OCc3ccccc3)c2N)c1=O [Compound 1-22]
Pre-emerge Herbicidal Activity AMARE (phytotoxicity rating, scale 0-100) ([1]; 63 g ai/ha): 95
Pre-emerge Herbicidal Activity AMARE (phytotoxicity rating, scale 0-100) ([1]; 250 g ai/ha): 100
Pre-emerge Herbicidal Activity ECHCG (phytotoxicity rating, scale 0-100) ([2]; 63 g ai/ha): 0
Pre-emerge Herbicidal Activity ECHCG (phytotoxicity rating, scale 0-100) ([2]; 250 g ai/ha): 60
Pre-emerge Herbicidal Activity SETVI (phytotoxicity rating, scale 0-100) ([3]; 63 g ai/ha): 90
Pre-emerge Herbicidal Activity SETVI (phytotoxicity rating, scale 0-100) ([3]; 250 g ai/ha): 100
Pre-emerge Herbicidal Activity IPOHE (phytotoxicity rating, scale 0-100) ([4]; 63 g ai/ha): 0
Pre-emerge Herbicidal Activity IPOHE (phytotoxicity rating, scale 0-100) ([4]; 250 g ai/ha): 20
Pre-emerge Herbicidal Activity SORHA (phytotoxicity rating, scale 0-100) ([5]; 63 g ai/ha): 0
Pre-emerge Herbicidal Activity SORHA (phytotoxicity rating, scale 0-100) ([5]; 250 g ai/ha): 60
Pre-emerge Herbicidal Activity CHEAL (phytotoxicity rating, scale 0-100) ([6]; 63 g ai/ha): 95
Pre-emerge Herbicidal Activity CHEAL (phytotoxicity rating, scale 0-100) ([6]; 250 g ai/ha): 100
Pre-emerge Herbicidal Activity DIGSA (phytotoxicity rating, scale 0-100) ([7]; 63 g ai/ha): 0
Pre-emerge Herbicidal Activity DIGSA (phytotoxicity rating, scale 0-100) ([7]; 250 g ai/ha): 60
Pre-emerge Herbicidal Activity CASOB (phytotoxicity rating, scale 0-100) ([8]; 63 g ai/ha): 0
Pre-emerge Herbicidal Activity CASOB (phytotoxicity rating, scale 0-100) ([8]; 250 g ai/ha): 0
Pre-emerge Herbicidal Activity ABUTH (phytotoxicity rating, scale 0-100) ([9]; 63 g ai/ha): 100
Pre-emerge Herbicidal Activity ABUTH (phytotoxicity rating, scale 0-100) ([9]; 250 g ai/ha): 100
Pre-emerge crop damage CORN (phytotoxicity rating, scale 0-100) ([10]; 63 g ai/ha): 0
Pre-emerge crop damage CORN (phytotoxicity rating, scale 0-100) ([10]; 250 g ai/ha): 10
Pre-emerge crop damage RICE (phytotoxicity rating, scale 0-100) ([11]; 63 g ai/ha): 0
Pre-emerge crop damage RICE (phytotoxicity rating, scale 0-100) ([11]; 250 g ai/ha): 50
Post-emerge Herbicidal Activity ECHCG ([12]; 63 g ai/ha): 0
Post-emerge Herbicidal Activity ECHCG ([12]; 250 g ai/ha): 0
Post-emerge Herbicidal Activity SETVI ([13]; 63 g ai/ha): 0
Post-emerge Herbicidal Activity SETVI ([13]; 250 g ai/ha): 80
Post-emerge Herbicidal Activity IPOHE ([14]; 63 g ai/ha): 40
Post-emerge Herbicidal Activity IPOHE ([14]; 250 g ai/ha): 90
Post-emerge Herbicidal Activity SORHA ([15]; 63 g ai/ha): 0
Post-emerge Herbicidal Activity SORHA ([15]; 250 g ai/ha): 10
Post-emerge Herbicidal Activity CHEAL ([16]; 63 g ai/ha): 40
Post-emerge Herbicidal Activity CHEAL ([16]; 250 g ai/ha): 80
Post-emerge Herbicidal Activity DIGSA ([17]; 63 g ai/ha): 0
Post-emerge Herbicidal Activity DIGSA ([17]; 250 g ai/ha): 0
Post-emerge Herbicidal Activity AMARE ([18]; 63 g ai/ha): 60
Post-emerge Herbicidal Activity AMARE ([18]; 250 g ai/ha): 80
Post-emerge Herbicidal Activity CASOB ([19]; 63 g ai/ha): 0
Post-emerge Herbicidal Activity CASOB ([19]; 250 g ai/ha): 0
Post-emerge Herbicidal Activity ABUTH ([20]; 63 g ai/ha): 100
Post-emerge Herbicidal Activity ABUTH ([20]; 250 g ai/ha): 100
Post-emerge Herbicidal Activity CORN (crop damage) ([21]; 63 g ai/ha): 5
Post-emerge Herbicidal Activity CORN (crop damage) ([21]; 250 g ai/ha): 15
Post-emerge Herbicidal Activity RICE (crop damage) ([22]; 63 g ai/ha): 10
Post-emerge Herbicidal Activity RICE (crop damage) ([22]; 250 g ai/ha): 40

Source: patent US6355799B1, “Substituted benzene compounds, process for their preparation, and herbicidal and defoliant compositions containing them” (ISK Americas Incorporated, priority 1997, dated 2002)
